# Test results reported in US20250163038A1, “CBL-B MODULATORS AND USES THEREOF” (Nimbus Clio, Inc., priority 2021, published 2025).
# What was measured:
# [1] = target: T1, Recombinant human c-Cbl (aa 47-435) (Homo sapiens, UniProt P22681); experiment: c-Cbl Biochemical Assay (TR-FRET); details: hc-Cbl Biochemical Assay (TR-FRET); read-out: TR-FRET hcCbl IC50
# T1 sequence (P22681 47-435): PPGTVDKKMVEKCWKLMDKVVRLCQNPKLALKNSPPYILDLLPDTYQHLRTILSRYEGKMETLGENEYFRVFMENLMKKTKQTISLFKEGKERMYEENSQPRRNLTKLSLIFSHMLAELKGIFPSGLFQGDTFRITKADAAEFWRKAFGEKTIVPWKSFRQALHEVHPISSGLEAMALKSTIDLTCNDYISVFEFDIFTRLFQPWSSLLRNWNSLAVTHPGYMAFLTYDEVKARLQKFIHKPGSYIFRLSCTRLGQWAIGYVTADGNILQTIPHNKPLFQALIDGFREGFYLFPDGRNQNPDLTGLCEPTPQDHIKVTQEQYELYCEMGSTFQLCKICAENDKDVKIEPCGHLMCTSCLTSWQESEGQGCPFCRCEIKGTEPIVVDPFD
# [2] = target: Recombinant human Cbl-b (aa 36-427) (Homo sapiens, UniProt Q13191); experiment: Cbl-b Biochemical Assay (TR-FRET); details: read-out: TR-FRET hCbl-b IC50
# Recombinant human Cbl-b (aa 36-427), sequence (Q13191 36-427): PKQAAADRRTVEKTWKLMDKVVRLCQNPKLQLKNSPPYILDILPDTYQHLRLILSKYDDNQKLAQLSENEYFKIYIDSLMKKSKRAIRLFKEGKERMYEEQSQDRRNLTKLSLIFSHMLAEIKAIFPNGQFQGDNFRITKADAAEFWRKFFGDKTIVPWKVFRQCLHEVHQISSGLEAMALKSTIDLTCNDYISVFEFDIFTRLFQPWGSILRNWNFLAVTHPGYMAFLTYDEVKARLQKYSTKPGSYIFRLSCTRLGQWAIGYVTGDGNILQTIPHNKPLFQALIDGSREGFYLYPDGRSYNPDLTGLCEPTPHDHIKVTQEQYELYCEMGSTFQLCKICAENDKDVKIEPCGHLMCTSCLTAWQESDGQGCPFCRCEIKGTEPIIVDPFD
Compound,IC50 [1],IC50 [2]
"Cn1cnnc1CC1(c2cccc(-c3nc4cc(C(=O)N5CCC6(CC6)C5)cc(C(F)(F)F)c4[nH]3)c2)COC1 [ABJ-2, (2-(3-(3-((4-Methyl-4H-1,2,4-triazol-3-yl)methyl)oxetan-3-yl)phenyl)-7-(trifluoromethyl)-1H-benzo[d]imidazol-5-yl)(5-azaspiro[2.4]heptan-5-yl)methanone]",10 to 50 µM,10 to 50 µM
"CCNc1cc(-c2c(-c3nncn3C)cnn2C)cc(-c2nc3cc(CN4CCC5(CC5)C4)cc(C(F)(F)F)c3o2)n1 [AAC-5, 6-(5-{5-Azaspiro[2.4]heptan-5-ylmethyl}-7-(trifluoromethyl)-1,3-benzoxazol-2-yl)-N-ethyl-4-[2-methyl-4-(4-methyl-1,2,4-triazol-3-yl)pyrazol-3-yl]pyridin-2-amine]",10 to 50 µM,1 to 10 µM
"Cn1cnnc1CC1(c2cccc(-c3cc(C(F)(F)F)cn(CCO)c3=O)c2)COC1 [ACG-3, 1-(2-Hydroxyethyl)-3-(3-(3-((4-methyl-4H-1,2,4-triazol-3-yl)methyl)oxetan-3-yl)phenyl)-5-(trifluoromethyl)pyridin-2(1H)-one]",10 to 50 µM,0.2 to 1 µM
"Cn1cnnc1CC1(c2cccc(-c3nc4cc(CN5CCCC5)cc(C(F)(F)F)c4[nH]3)c2)COC1 [ABL-1, 2-(3-(3-((4-Methyl-4H-1,2,4-triazol-3-yl)methyl)oxetan-3-yl)phenyl)-5-(pyrrolidin-1-ylmethyl)-7-(trifluoromethyl)-1H-benzo[d]imidazole]",10 to 50 µM,0.2 to 1 µM
"Cn1cnnc1CC1(c2cccc(-c3nc4cccc(C(F)(F)F)n4n3)c2)COC1 [ABC-4, 2-(3-(3-((4-Methyl-4H-1,2,4-triazol-3-yl)methyl)oxetan-3-yl)phenyl)-5-(trifluoromethyl)-[1,2,4]triazolo[1,5-a]pyridine]",10 to 50 µM,10 to 50 µM
"Cn1cnnc1C[C@]1(c2cccc(-c3nc4cccc(C(F)(F)F)c4o3)c2)C[C@H](C#N)C1 [AAT-14, (1r,3r)-3-((4-Methyl-4H-1,2,4-triazol-3-yl)methyl)-3-(3-(7-(trifluoromethyl)benzo[d]oxazol-2-yl)phenyl)cyclobutane-1-carbonitrile]",10 to 50 µM,1 to 10 µM
"Cn1cnnc1CC1(c2cccc(-c3nc4cccc(C(F)(F)F)c4o3)c2)COC1 [ACO-1, 2-(3-(3-((4-Methyl-4H-1,2,4-triazol-3-yl)methyl)oxetan-3-yl)phenyl)-7-(trifluoromethyl)benzo[d]oxazole]",10 to 50 µM,0.2 to 1 µM
"CCNc1cc(-c2c(-c3nncn3C)cnn2C)cc(-c2cc(C(F)(F)F)c[nH]c2=O)n1 [ACQ-3, 6-(Ethylamino)-4-(1-methyl-4-(4-methyl-4H-1,2,4-triazol-3-yl)-1H-pyrazol-5-yl)-5′-(trifluoromethyl)-[2,3′-bipyridin]-2′(1′H)-one]",1 to 10 µM,0.2 to 1 µM
"Cn1cnnc1CC1(c2cccc(-c3nc4cc(C(=O)N5CC[C@H](O)C5)cc(C(F)(F)F)c4[nH]3)c2)COC1 [ABR-2, (S)-(3-Hydroxypyrrolidin-1-yl)(2-(3-(3-((4-methyl-4H-1,2,4-triazol-3-yl)methyl)oxetan-3-yl)phenyl)-7-(trifluoromethyl)-1H-benzo[d]imidazol-5-yl)methanone]",1 to 10 µM,< 0.2 µM
"COC(=O)c1ccc2oc(-c3cccc(-c4ccc(Cl)cc4-c4nncn4C)c3)nc2c1 [ADJ-2, Methyl 2-[4′-chloro-2′-(4-methyl-1,2,4-triazol-3-yl)-[1,1′-biphenyl]-3-yl]-1,3-benzoxazole-5-carboxylate]",1 to 10 µM,1 to 10 µM
"Cn1cnnc1CC1(c2cccc(-c3nc4cc(CN5CC[C@@H](O)C5)cc(C(F)(F)F)c4[nH]3)c2)COC1 [ACB-1, (R)-1-((2-(3-(3-((4-Methyl-4H-1,2,4-triazol-3-yl)methyl)oxetan-3-yl)phenyl)-7-(trifluoromethyl)-1H-benzo[d]imidazol-5-yl)methyl)pyrrolidin-3-ol]",10 to 50 µM,0.2 to 1 µM
"Cn1cnnc1CC1(c2cccc(-c3cc(C4CC4)c[nH]c3=O)c2)COC1 [ABX-3, 5-Cyclopropyl-3-(3-(3-((4-methyl-4H-1,2,4-triazol-3-yl)methyl)oxetan-3-yl)phenyl)pyridin-2(1H)-one]",10 to 50 µM,10 to 50 µM

# More lines, now with the values ahead:
IC50 [1],IC50 [2],Compound
10 to 50 µM,10 to 50 µM,"Cn1cnnc1-c1ccccc1-c1cccc(-c2nc3cc(C(C)(C)O)cc(C(F)(F)F)c3o2)c1 [Example J-1, 2-(2-(2′-(4-Methyl-4H-1,2,4-triazol-3-yl)-[1,1′-biphenyl]-3-yl)-7-(trifluoromethyl)benzo[d]oxazol-5-yl)propan-2-ol]"
10 to 50 µM,10 to 50 µM,"Cn1cnnc1-c1ccccc1-c1cccc(-c2nc3ccc(N)c(C(F)(F)F)c3[nH]2)c1 [BE-2, 2-(2′-(4-Methyl-4H-1,2,4-triazol-3-yl)-[1,1′-biphenyl]-3-yl)-7-(trifluoromethyl)-1H-benzo[d]imidazol-6-amine]"
10 to 50 µM,10 to 50 µM,"COC(=O)c1cc(C(F)(F)F)c2oc(-c3cccc(-c4ccccc4-c4nncn4C)c3)nc2c1 [Example G-1, Methyl 2-(2′-(4-methyl-4H-1,2,4-triazol-3-yl)-[1,1′-biphenyl]-3-yl)-7-(trifluoromethyl)benzo[d]oxazole-5-carboxylate]"
10 to 50 µM,10 to 50 µM,"Cn1cnnc1-c1cc(C#N)ccc1-c1cccc(-c2nc3cccc(C(F)(F)F)c3[nH]2)c1 [CB-1, 2-(4-Methyl-4H-1,2,4-triazol-3-yl)-3′-(4-(trifluoromethyl)-1H-benzo[d]imidazol-2-yl)-[1,1′-biphenyl]-4-carbonitrile]"
1 to 10 µM,< 0.2 µM,"CCN(Cc1cc(C(F)(F)F)c2oc(-c3cccc(-c4ccc(F)cc4-c4nncn4C)c3)nc2c1)CC1(C#N)CCCC1 [CO-2, 1-((Ethyl((2-(4′-fluoro-2′-(4-methyl-4H-1,2,4-triazol-3-yl)-[1,1′-biphenyl]-3-yl)-7-(trifluoromethyl)benzo[d]oxazol-5-yl)methyl)amino)methyl)cyclopentane-1-carbonitrile]"
10 to 50 µM,10 to 50 µM,"CC(Cc1nncn1C)c1cccc(-c2nc3ccc(C(=O)N4CCN(C)CC4)c(C(F)(F)F)c3[nH]2)c1 (racemic) [AY-5, (2-(3-(1-(4-Methyl-4H-1,2,4-triazol-3-yl)propan-2-yl)phenyl)-7-(trifluoromethyl)-1H-benzo[d]imidazol-6-yl)(4-methylpiperazin-1-yl)methanone]"
1 to 10 µM,< 0.2 µM,"Cn1cnnc1-c1cc(F)ccc1-c1cccc(-c2nc3cc(CNC4(CO)COC4)cc(C(F)(F)F)c3[nH]2)c1 [BS-1, (3-(((2-(4′-Fluoro-2′-(4-methyl-4H-1,2,4-triazol-3-yl)-[1,1′-biphenyl]-3-yl)-7-(trifluoromethyl)-1H-benzo[d]imidazol-5-yl)methyl)amino)oxetan-3-yl)methanol]"
10 to 50 µM,10 to 50 µM,"COC(OC)c1ccc2oc(-c3cccc(-c4ccc(F)cc4-c4nncn4C)c3)nc2c1 [AT-1, 5-(Dimethoxymethyl)-2-(4′-fluoro-2′-(4-methyl-4H-1,2,4-triazol-3-yl)-[1,1′-biphenyl]-3-yl)benzo[d]oxazole]"
10 to 50 µM,0.2 to 1 µM,"Cn1cnnc1-c1cc(C#N)ccc1-c1cccc(-c2nc3cccc(C(F)(F)F)c3o2)c1 [AU-1, 2-(4-Methyl-4H-1,2,4-triazol-3-yl)-3′-(7-(trifluoromethyl)benzo[d]oxazol-2-yl)-[1,1′-biphenyl]-4-carbonitrile]"
10 to 50 µM,10 to 50 µM,"Cn1cnnc1-c1ccccc1-c1cccc(-c2nc3ccc(OCCN4CCCC4)c(C(F)(F)F)c3[nH]2)c1 [BG-1, 2-(2′-(4-Methyl-4H-1,2,4-triazol-3-yl)-[1,1′-biphenyl]-3-yl)-6-(2-(pyrrolidine-1-yl)ethoxy)-7-(trifluoromethyl)-1H-benzo[d]imidazole]"
10 to 50 µM,10 to 50 µM,"Cn1cnnc1-c1cc(F)ccc1-c1cccc(-c2nc3cc(CO)ccc3[nH]2)c1 [BW-3, (2-(4′-Fluoro-2′-(4-methyl-4H-1,2,4-triazol-3-yl)-[1,1′-biphenyl]-3-yl)-1H-benzo[d]imidazol-5-yl)methanol]"
10 to 50 µM,1 to 10 µM,"Cn1cnnc1-c1cc(C#N)ccc1-c1cccc(-c2nc3cc(CO)cc(C(F)(F)F)c3[nH]2)c1 [BZ-1, 3′-(5-(Hydroxymethyl)-7-(trifluoromethyl)-1H-benzo[d]imidazol-2-yl)-2-(4-methyl-4H-1,2,4-triazol-3-yl)-[1,1′-biphenyl]-4-carbonitrile]"
10 to 50 µM,1 to 10 µM,"Cn1cnnc1CC1(c2cccc(-c3nc4ccc(Br)c(C(F)(F)F)c4[nH]3)c2)COC1 [BA-1, 6-Bromo-2-(3-(3-((4-methyl-4H-1,2,4-triazol-3-yl)methyl)oxetan-3-yl)phenyl)-7-(trifluoromethyl)-1H-benzo[d]imidazole]"
10 to 50 µM,10 to 50 µM,"COC(=O)c1[nH]c(=O)c(-c2cccc(-c3ccccc3-c3nncn3C)c2)cc1C(F)(F)F [CH-2, Methyl 5-(2′-(4-methyl-4H-1,2,4-triazol-3-yl)-[1,1′-biphenyl]-3-yl)-6-oxo-3-(trifluoromethyl)-1,6-dihydropyridine-2-carboxylate]"
1 to 10 µM,0.2 to 1 µM,"CCNc1cc(-c2ccc(F)cc2-c2nncn2C)cc(-c2nc3cccc(C(F)(F)F)c3o2)n1 [AEJ-4, N-Ethyl-4-[4-fluoro-2-(4-methyl-1,2,4-triazol-3-yl)phenyl]-6-[7-(trifluoromethyl)-1,3-benzoxazol-2-yl]pyridin-2-amine]"
